Experiments:
[1] = target: T1, CDK1:Cyclin-B (Homo sapiens, UniProt P06493); assay: CDK1 Screening Assay; assay type: biochemical
T1 construct: purchased New England Biolabs, Beverly, Mass; 6020; host or cells: insect cells

[2] = target: T2, rat VEGF-R2 kinase domain (Rattus norvegicus, UniProt O08775); assay: VEGF-R2 Screening Assay; assay type: biochemical; conditions: > means no observed 50% inhibition at the indicated test concentration; ~ means approximately 50% inhibition at that concentration; read-out: IC50 VEGF-R2
T2 construct: amino acids 786-1343 of the rat VEGF-R2 kinase domain; polyhistidine (N)
T2 sequence (O08775 786-1343): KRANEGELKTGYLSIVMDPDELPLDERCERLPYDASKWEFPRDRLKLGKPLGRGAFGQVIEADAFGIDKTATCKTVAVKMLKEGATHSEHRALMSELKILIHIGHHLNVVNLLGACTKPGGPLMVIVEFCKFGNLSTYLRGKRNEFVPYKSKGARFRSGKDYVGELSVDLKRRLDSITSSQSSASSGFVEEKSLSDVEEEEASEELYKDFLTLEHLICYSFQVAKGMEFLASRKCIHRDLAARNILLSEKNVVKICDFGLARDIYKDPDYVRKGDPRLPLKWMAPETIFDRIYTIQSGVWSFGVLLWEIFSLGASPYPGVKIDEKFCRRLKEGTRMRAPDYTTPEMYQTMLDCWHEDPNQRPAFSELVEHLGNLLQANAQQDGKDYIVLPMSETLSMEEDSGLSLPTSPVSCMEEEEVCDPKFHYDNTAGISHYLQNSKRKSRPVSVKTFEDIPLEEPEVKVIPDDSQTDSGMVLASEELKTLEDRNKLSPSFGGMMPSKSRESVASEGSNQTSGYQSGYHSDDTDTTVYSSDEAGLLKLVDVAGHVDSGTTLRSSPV

[3] = target: T3, murine Aurora-A (Mus musculus, UniProt P97477); assay: Aurora-A Screening Assay; assay type: biochemical
T3 construct: replaced with the full length protein encoding the murine Aurora-A; made in house; host or cells: sf9 insect cells
T3 sequence (P97477 1-395): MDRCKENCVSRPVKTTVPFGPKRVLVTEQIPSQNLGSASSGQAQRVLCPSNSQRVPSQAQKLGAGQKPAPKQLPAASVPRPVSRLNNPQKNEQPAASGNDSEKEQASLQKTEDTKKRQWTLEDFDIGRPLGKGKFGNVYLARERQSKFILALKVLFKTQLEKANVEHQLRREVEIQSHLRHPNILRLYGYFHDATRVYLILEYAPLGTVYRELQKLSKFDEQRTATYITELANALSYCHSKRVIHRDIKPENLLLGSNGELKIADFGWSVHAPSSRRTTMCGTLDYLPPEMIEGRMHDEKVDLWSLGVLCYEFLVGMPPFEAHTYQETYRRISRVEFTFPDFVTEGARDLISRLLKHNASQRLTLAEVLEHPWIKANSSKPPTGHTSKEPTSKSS

[4] = target: T4, HER2 cytoplasmic domain (Homo sapiens, UniProt P04626); assay: HER2 Kinase Screening Assay; assay type: biochemical; conditions: > means no observed 50% inhibition at the indicated test concentration; ~ means approximately 50% inhibition at that concentration
T4 construct: polyhistidine (N)
T4 sequence (P04626 676-1255 limits assumed): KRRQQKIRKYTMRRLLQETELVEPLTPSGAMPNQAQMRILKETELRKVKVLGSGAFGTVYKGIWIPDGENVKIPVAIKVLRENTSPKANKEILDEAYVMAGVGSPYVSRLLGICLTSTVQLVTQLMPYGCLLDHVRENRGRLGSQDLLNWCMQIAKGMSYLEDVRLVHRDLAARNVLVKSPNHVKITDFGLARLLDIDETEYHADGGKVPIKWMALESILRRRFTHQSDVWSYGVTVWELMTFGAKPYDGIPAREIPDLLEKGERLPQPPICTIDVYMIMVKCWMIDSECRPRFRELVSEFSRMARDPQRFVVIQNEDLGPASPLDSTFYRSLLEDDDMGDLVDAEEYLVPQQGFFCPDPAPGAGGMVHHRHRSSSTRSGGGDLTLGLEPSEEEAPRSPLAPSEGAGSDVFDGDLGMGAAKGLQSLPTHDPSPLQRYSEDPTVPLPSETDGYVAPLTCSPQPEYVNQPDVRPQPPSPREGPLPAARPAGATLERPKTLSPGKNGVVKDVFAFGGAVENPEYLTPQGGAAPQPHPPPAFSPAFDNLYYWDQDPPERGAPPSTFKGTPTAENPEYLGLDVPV

[5] = target: T5, RET cytoplasmic domain (Homo sapiens, UniProt P07949); assay: RET Kinase Screening Assay; assay type: biochemical
T5 construct: the RET cytoplasmic domain consisting of the last 492 amino acids of the intracellular domain; histidine tag (N); made in house; host or cells: Hi5 insect cells
T5 sequence (P07949 658-1114 limits assumed): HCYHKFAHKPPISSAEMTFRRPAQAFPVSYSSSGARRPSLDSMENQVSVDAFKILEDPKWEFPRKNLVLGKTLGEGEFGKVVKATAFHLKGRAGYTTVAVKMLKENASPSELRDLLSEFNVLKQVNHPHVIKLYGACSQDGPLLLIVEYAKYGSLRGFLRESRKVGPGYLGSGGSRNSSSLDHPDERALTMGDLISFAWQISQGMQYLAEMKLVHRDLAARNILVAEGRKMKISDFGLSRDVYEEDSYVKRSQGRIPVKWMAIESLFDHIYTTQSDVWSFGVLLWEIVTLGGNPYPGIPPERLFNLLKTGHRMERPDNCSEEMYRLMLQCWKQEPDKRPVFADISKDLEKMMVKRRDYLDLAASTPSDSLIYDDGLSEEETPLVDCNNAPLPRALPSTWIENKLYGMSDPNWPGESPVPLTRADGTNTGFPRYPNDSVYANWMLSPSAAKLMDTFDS

[6] = system: HeLa cervical adenocarcinoma; assay: Inhibition of in vitro cell proliferation (HeLa); assay type: cell-based, human; conditions: Homo sapiens, 14C-thymidine incorporation;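 further: cells exposed to compound for 24 h, then labelled 24 h with methyl 14C-thymidine, with uptake into DNA counted by scintillation against DMSO-only control wells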
[7] = system: HCT-116 colon carcinoma; assay: Inhibition of in vitro cell proliferation (HCT116); assay type: cell-based, human; conditions: Homo sapiens, HCT-116, 14C-thymidine incorporation;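 further: cells exposed to compound for 24 h, then 14C-thymidine added for a further 24 h and its uptake into DNA counted by scintillation, DMSO-only wells as control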
[8] = system: A375 malignant melanoma; assay: Inhibition of in vitro cell proliferation (A375); assay type: cell-based, human; conditions: Homo sapiens, A-375, 14C-thymidine incorporation;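 further: cells plated for 24 h, given compound for 24 h, then labelled with 14C-thymidine for another 24 h, with DMSO-only wells as control and counts read by scintillation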

T1 sequence (P06493 whole entry): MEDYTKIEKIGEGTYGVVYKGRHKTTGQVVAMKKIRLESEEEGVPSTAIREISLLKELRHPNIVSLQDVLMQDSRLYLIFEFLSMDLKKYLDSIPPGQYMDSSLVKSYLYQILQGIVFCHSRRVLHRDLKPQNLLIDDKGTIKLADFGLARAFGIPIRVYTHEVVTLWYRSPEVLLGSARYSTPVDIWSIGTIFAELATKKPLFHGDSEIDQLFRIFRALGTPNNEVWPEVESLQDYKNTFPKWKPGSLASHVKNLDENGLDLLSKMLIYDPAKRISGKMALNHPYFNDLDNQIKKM
T1 sequence (P14635 whole entry partner): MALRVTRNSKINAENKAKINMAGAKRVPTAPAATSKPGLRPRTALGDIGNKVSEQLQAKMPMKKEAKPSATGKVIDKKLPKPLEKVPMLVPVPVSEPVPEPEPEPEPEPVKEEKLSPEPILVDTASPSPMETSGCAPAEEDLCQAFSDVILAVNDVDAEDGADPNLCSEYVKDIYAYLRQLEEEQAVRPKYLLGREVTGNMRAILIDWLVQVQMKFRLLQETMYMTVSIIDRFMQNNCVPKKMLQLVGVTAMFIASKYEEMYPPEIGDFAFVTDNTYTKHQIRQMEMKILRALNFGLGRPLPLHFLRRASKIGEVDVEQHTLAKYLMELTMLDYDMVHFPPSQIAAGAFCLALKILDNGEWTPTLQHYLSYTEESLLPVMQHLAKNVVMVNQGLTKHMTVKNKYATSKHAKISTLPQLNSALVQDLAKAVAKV

Row | IC50 [1] [µM] | IC50 [2] [nM] | IC50 [3] [µM] | IC50 [4] [µM] | IC50 [5] [µM] | IC50 [6] [µM] | IC50 [7] [µM] | IC50 [8] [µM] | SMILES
1 | > 100 | 1 | > 100 | ~100 | ~10 | 2.98 | 3.14 | 1.39 | CNC(=O)n1c(C)cc2cc(Oc3ncnc(N)c3C=NOC)ccc21 [Cpd 49, 5-[6-amino-5-(methoxyimino-methyl)-pyrimidin-4-yloxy]-2-methyl-indole-1-carboxylic acid methylamide]
2 | > 100 | 4770 | > 100 | > 10 | ~100 | > 10 | 38.3 | > 10 | CON=Cc1c(NOC)ncnc1Oc1ccc2[nH]ccc2c1 [Cpd 4, 4-(1H-indol-5-yloxy)-6-methoxyamino-pyrimidine-5-carbaldehyde O-methyl-oxime]
3 | > 100 | 33 | ~10 | ~10 | > 10 | 0.472 | 1.14 | 0.492 | Cc1cc2c(F)c(Oc3ncnc(N)c3/C=N/O)ccc2[nH]1 [Cpd 27, 4-amino-6-(4-fluoro-2-methyl-1H-indol-5-yloxy)-pyrimidine-5-carbaldehyde oxime]
4 | > 100 | ~100 | > 100 | 1.23 | 3.58 | 4.91 | 9.24 | 3.82 | Cc1cc2c(F)c(Oc3ncnc(N)c3C=NOCCCN3CCOCC3)ccc2[nH]1 [Cpd 19, 4-amino-6-(4-fluoro-2-methyl-1H-indol-5-yloxy)-pyrimidine-5-carbaldehyde O-(3-morpholin-4-yl-propyl)-oxime]
5 | > 100 | 180 | > 100 | > 100 | > 10 | > 100 | > 100 | > 100 | CCNC(=O)Nc1ccc(Oc2ncnc(N)c2C=NOC)cc1C [Cpd 66, 1-{4-[6-amino-5-(methoxyimino-methyl)-pyrimidin-4-yloxy]-2-methyl-phenyl}-3-ethyl-urea]
6 | > 100 | 42.4 | – | > 10 | > 10 | > 10 | > 10 | > 1 | CON=Cc1c(N)ncnc1Oc1ccc2c(c1)cc(C)n2C(=O)NCCN(C)C [Cpd 41, 5-[6-amino-5-(methoxyimino-methyl)-pyrimidin-4-yloxy]-2-methyl-indole-1-carboxylic acid (2-dimethylamino-ethyl)-amide]
7 | > 100 | – | ~100 | 9.59 | > 10 | 0.406 | 0.323 | 0.372 | Cc1cc2c(F)c(Oc3ncnc(N)c3C=NOCCO)ccc2[nH]1 [Cpd 12, 4-amino-6-(4-fluoro-2-methyl-1H-indol-5-yloxy)-pyrimidine-5-carbaldehyde O-(2-hydroxy-ethyl)-oxime]
8 | > 100 | – | > 10 | 4.63 | > 10 | 0.362 | 0.452 | 0.336 | Cc1cc2c(F)c(Oc3ncnc(N)c3C=NOCCCO)ccc2[nH]1 [Cpd 29, 4-amino-6-(4-fluoro-2-methyl-1H-indol-5-yloxy)-pyrimidine-5-carbaldehyde O-(3-hydroxy-propyl)-oxime]
9 | > 100 | – | > 100 | > 10 | > 100 | 0.375 | 0.749 | 0.326 | CON=Cc1c(N)ncnc1Oc1ccc2c(ccn2C)c1 [Cpd 11, 4-amino-6-(1-methyl-1H-indol-5-yloxy)-pyrimidine-5-carbaldehyde O-methyl-oxime]
10 | > 100 | 45 | > 100 | 1.41 | 2.77 | > 10 | > 10 | > 10 | Cc1cc2c(F)c(Oc3ncnc(N)c3C=NOCCCN3CCN(S(C)(=O)=O)CC3)ccc2[nH]1 [Cpd 22, 4-amino-6-(4-fluoro-2-methyl-1H-indol-5-yloxy)-pyrimidine-5-carbaldehyde O-[3-(4-methanesulfonyl-piperazin-1-yl)-propyl]-oxime]
11 | > 100 | – | > 10 | > 100 | 2.01 | 3.43 | 2.87 | 1.82 | CON=Cc1c(N)ncnc1Oc1ccc2ncccc2c1 [Cpd 5, 4-amino-6-(quinolin-6-yloxy)-pyrimidine-5-carbaldehyde O-methyl-oxime]
12 | > 100 | – | > 10 | 0.208 | > 100 | 0.306 | 0.385 | 0.132 | CON=Cc1c(N)ncnc1Oc1ccc2[nH]cc(C)c2c1 [Cpd 9, 4-amino-6-(3-methyl-1H-indol-5-yloxy)-pyrimidine-5-carbaldehyde O-methyl-oxime]
13 | > 100 | – | > 100 | 10.9 | > 100 | 2.01 | 3.04 | 0.345 | CNCCON=Cc1c(N)ncnc1Oc1ccc2[nH]c(C)cc2c1F [Cpd 16, 4-amino-6-(4-fluoro-2-methyl-1H-indol-5-yloxy)-pyrimidine-5-carbaldehyde O-(2-methylamino-ethyl)-oxime]
14 | > 100 | 82 | > 100 | 1.78 | 8.32 | > 10 | > 10 | > 10 | CC(=O)N1CCN(CCCON=Cc2c(N)ncnc2Oc2ccc3[nH]c(C)cc3c2F)CC1 [Cpd 23, 4-amino-6-(4-fluoro-2-methyl-1H-indol-5-yloxy)-pyrimidine-5-carbaldehyde O-[3-(4-acetyl-piperazin-1-yl)-propyl]-oxime]
15 | > 100 | > 100000 | > 100 | > 100 | > 100 | > 10 | > 10 | > 10 | CNc1ncnc(Oc2ccc3[nH]ccc3c2)c1C=NOC [Cpd 3, 4-(1H-indol-5-yloxy)-6-methylamino-pyrimidine-5-carbaldehyde O-methyl-oxime]
16 | > 100 | – | > 100 | > 100 | > 100 | 22.7 | 16.1 | 4.92 | Cc1cc2c(F)c(Oc3ncnc(N)c3C=NOCC3CCCCC3)ccc2[nH]1 [Cpd 35, 4-amino-6-(4-fluoro-2-methyl-1H-indol-5-yloxy)-pyrimidine-5-carbaldehyde O-cyclohexylmethyl-oxime]
17 | > 100 | – | > 10 | > 1 | > 1 | 0.382 | 0.422 | 0.327 | CON=Cc1c(N)ncnc1Oc1cc2cc[nH]c2cc1F [Cpd 8, 4-amino-6-(6-fluoro-1H-indol-5-yloxy)-pyrimidine-5-carbaldehyde O-methyl-oxime]

Row | SMILES | IC50 [1] [µM] | IC50 [2] [nM] | IC50 [3] [µM] | IC50 [4] [µM] | IC50 [5] [µM] | IC50 [6] [µM] | IC50 [7] [µM] | IC50 [8] [µM]
18 | CCNC(=O)Nc1ccc(Oc2ncnc(N)c2C=NOC)cc1 [Cpd 69, 1-{4-[6-amino-5-(methoxyimino-methyl)-pyrimidin-4-yloxy]-phenyl}-3-ethyl-urea] | > 100 | 142 | > 10 | > 100 | > 10 | > 10 | > 10 | > 10
19 | CNC(=O)Nc1ccc(Oc2ncnc(N)c2C=NOC)cc1Cl [Cpd 51, 1-{4-[6-amino-5-(methoxyimino-methyl)-pyrimidin-4-yloxy]-2-chloro-phenyl}-3-methyl-urea] | > 100 | 25 | > 100 | > 100 | ~1 | 3.75 | 4.21 | 4.09

— US8013153B2, “Substituted pyrimidine kinase inhibitors” (Janssen Pharmaceutica, N.V., priority 2006, dated 2011)
